Experimental data: patent publication US20060134008A1, “Compositions and methods for pulmonary conditions” (priority 2004, published 2006)

Legend:
[1] = in average [70-kg] adult; cited from earlier work
[2] = test system: guinea pigs immunized against ovalbumin
[3] = test system: guinea pigs; assay: Methacholine-induced bronchoconstriction (PenH), methacholine 20-30 minutes after isoflurane anesthesia and airway instillation; conditions: for block of methacholine and lidocaine induced bronchoconstriction (PenH): instilled with lidocaine, methacholine within 20-30 minutes of terminating anesthesia, FIG. 4; for PenH after methacholine by nebulization: methacholine 20-30 minutes following treatment, 200-300 μL instilled
Protocol: Guinea pigs were anesthetized with isoflurane and one of the following treatments instilled into the airway using a Penn Century device designed for liquid instillation: a) saline; b) lidocaine; c) IpBr or d) lidocaine and IpBr. The volume of liquid instilled was between 200-300 μL for each treatment group. Between 20 and 30 minutes following treatment all animals received methacholine by nebulization.

[4] = test system: guinea pigs; assay: Methacholine-induced bronchoconstriction (PenH), methacholine approximately 10-15 minutes after isoflurane anesthesia and treatment; conditions: FIG. 5
Protocol: A second study was conducted to evaluate the ability of IpBr and epinephrine to reduce lidocaine/methacholine induced bronchoconstriction earlier relative to the termination of isoflurane. […] Guinea pigs were anesthetized with isoflurane and treated with: a) saline; b) lidocaine; c) lidocaine plus epinephrine; or d) lidocaine plus IpBr. Approximately 10-15 minutes later each guinea pig was exposed to methacholine by nebulization.

[5] = given with lidocaine, methacholine approximately 10-15 minutes later

| SMILES | Maximum one-time dose (volume) [1] | block of methacholine and lidocaine induced bronchoconstriction (PenH) [3] | PenH after methacholine by nebulization ([3]; FIG. 3) | effect on PenH (in words) [4, 5] | also measured |
| --- | --- | --- | --- | --- | --- |
| CCCCN1CCCCC1C(=O)Nc1c(C)cccc1C (stereo not shown) [Bupivacaine] | (50 mL in average [70-kg] adult) |  |  |  |  |
| CC(C)[N+]1(C)[C@@H]2CC[C@H]1CC(OC(=O)C(CO)c1ccccc1)C2.[Br-] (stereo partly shown) [IpBr, ipratropium bromide] |  | blocks methacholine-induced bronchoconstriction out to 30 minutes of treatment | effective in blocking methacholine induced bronchoconstriction | greatly reduce PenH back to baseline levels | effect of concomitant administration on lidocaine-induced increase in PenH ([2]; co-administered with lidocaine, FIG. 2, PenH similar to saline only): blocked the effect of lidocaine on PenH; reduction of PenH relative to animals receiving only lidocaine [4, 5]: approximately 90% |
| CCN(CC)CC(=O)Nc1c(C)cccc1C [Lidocaine, lidocaine] | (30 mL in average [70-kg] adult) | no differences in PenH | increase PenH relative to guinea pigs receiving only saline |  | magnitude of the lidocaine-induced PenH increase ([2]; 1.25 or 2.5 mg instilled, FIG. 1): dose-dependent; effect on the bronchoconstrictive action of methacholine ([3]; 15 and 30 minutes following termination of isoflurane anesthesia): enhanced the bronchoconstrictive action of methacholine; PenH relative to baseline ([4]; methacholine approximately 10-15 minutes after treatment): increase in PenH over baseline |
| Cc1cccc(C)c1NC(=O)C1CCCCN1C (stereo not shown) [Mepivacaine] | (30 mL in average [70-kg] adult) |  |  |  |  |
| CNC[C@H](O)c1ccc(O)c(O)c1 [epinephrine] |  | but not epinephrine, blocks methacholine-induced bronchoconstriction |  | reduced PenH to levels similar to those observed in saline treated animals |  |
| FC(F)OC(Cl)C(F)(F)F (stereo not shown) [isoflurane] |  |  |  |  | time for which the bronchoconstrictive effects of methacholine are reduced ([3]; inhaled anesthetic, FIG. 3): 20 to 30 min |
